Measurements taken from the supplement of paper PMC4314810.
± gives the standard deviation of the averaged measurements.

Tested on: MCF7
Experiment: HRG-induced Akt activation (dPAkt = log2 pAkt/Akt HRG-stimulated minus log2 pAkt/Akt basal) (log2 ratio difference); higher = stronger HRG-induced Akt(T308) phosphorylation
Conditions: miRNA mimic concentration 10 nM; time after transfection 72 h; heregulin 10 ng/ml; stimulation time 1 h
Method in brief: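 MCF7 cells ([…], 96-well plates) carrying one of 879 miRNA mimics, transfected at 10 nM final with Lipofectamine RNAiMax in two biological replicates, were stimulated after 72 h with 10 ng/ml heregulin-beta1 for 1 h or left unstimulated. Phospho-Akt(T308) and total Akt in cells fixed with 4% PFA were read by In-Cell Western on an Odyssey and corrected for column-wise fixation decay to give log2(pAkt/Akt). Heregulin-induced Akt activation is the replicate mean of stimulated minus unstimulated ratios.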

Sequence | HRG-induced Akt activation (log2)
AAAAACUGAGACUACUUUUGCA | 1.33 ± 0.15
AAAAACUGUAAUUACUUUU | 1.15 ± 0.3
AAAACCGUCUAGUUACAGUUGU | 1.26 ± 0.26
AAAACGGUGAGAUUUUGUUUU | 1.75 ± 0.2
AAAACUGUAAUUACUUUUGUAC | 1.26 ± 0.31
AAAAGCUGGGUUGAGAGGA | 1.507 ± 0.011
AAAAGCUGGGUUGAGAGGGCAA | 1.61 ± 0.092
AAAAGCUGGGUUGAGAGGGCGA | 1.44 ± 0.13
AAAAGCUGGGUUGAGAGGGU | 1.89 ± 0.17
AAAAGUAAUCGCGGUUUUUGUC | 1.2 ± 0.063
AAAAGUAAUUGCGAGUUUUACC | 1.34 ± 0.091
AAAAGUAAUUGCGGAUUUUGCC | 0.977 ± 0.53
AAAAGUAAUUGCGGUCUUUGGU | 1.32 ± 0.034
AAAAGUAAUUGCGGUUUUUGCC | 1.53 ± 0.17
AAAAGUAAUUGUGGUUUUGGCC | 1.15 ± 0.15
AAAAGUAAUUGUGGUUUUUGCC | 1.07 ± 0.085
AAAAGUACUUGCGGAUUUUGCU | 1.58 ± 0.21
AAAAGUAUUUGCGGGUUUUGUC | 1.58 ± 0.098
AAAAGUGCUUACAGUGCAGGUAG | 1.2 ± 0.069
AAAAUGGUGCCCUAGUGACUACA | 1.9 ± 0.43
AAAAUGGUUCCCUUUAGAGUGU | 1.21 ± 0.31
AAACAAACAUGGUGCACUUCUU | 1.48 ± 0.08
AAACAUUCGCGGUGCACUUCUU | 1.84 ± 0.035
AAACCGUUACCAUUACUGAGUU | 1.22 ± 0.2

Sequence | HRG-induced Akt activation (log2)
AAACCUGUGUUGUUCAAGAGUC | 0.883 ± 0.023
AAACUACUGAAAAUCAAAGAU | 1.76 ± 0.11
AAACUCUACUUGUCCUUCUGAGU | 0.945 ± 0.39
AAAGACAUAGGAUAGAGUCACCUC | 1.9 ± 0.072
AAAGCGCUUCCCUUCAGAGUG | 1.53 ± 0.33
AAAGGAUUCUGCUGUCGGUCCCACU | 1.63 ± 0.2
AAAGUAGCUGUACCAUUUGC | 1.44 ± 0.56
AAAGUGCAUCCUUUUAGAGGUU | 0.411 ± 0.64
AAAGUGCAUCCUUUUAGAGUGU | 0.756 ± 0.11
AAAGUGCAUCUUUUUAGAGGAU | 0.724 ± 0.058
AAAGUGCUGCGACAUUUGAGCGU | 0.644 ± 0.26
AAAGUGCUUCCCUUUGGACUGU | 0.806 ± 0.049
AAAGUGCUUCCUUUUAGAGGG | 0.928 ± 0.12
AAAGUGCUUCCUUUUAGAGGGU | 0.665 ± 0.11
AAAGUGCUUCCUUUUUGAGGG | 0.963 ± 0.46
AAAGUGCUUCUCUUUGGUGGGU | 0.92 ± 0.047
AAAGUUCUGAGACACUCCGACU | 1.35 ± 0.082
AAAUCUCUGCAGGCAAAUGUGA | 1.19 ± 0.11
AAAUUAUUGUACAUCGGAUGAG | 1.48 ± 0.61
AACAAUAUCCUGGUGCUGAGUG | 1.79 ± 0.41
AACACACCUAUUCAAGGAUUCA | 1.11 ± 0.37
AACACACCUGGUUAACCUCUUU | 1.23 ± 0.54
AACAGGUGACUGGUUAGACAA | 2.3 ± 0.13
AACAUAGAGGAAAUUCCACGU | 1.17 ± 0.5

Sequence | HRG-induced Akt activation (log2)
AACAUCACAGCAAGUCUGUGCU | 1.32 ± 0.38
AACAUUCAACCUGUCGGUGAGU | 2.38 ± 0.33
AACAUUCAACGCUGUCGGUGAGU | 1.71 ± 0.13
AACAUUCAUUGCUGUCGGUGGGU | 1.77 ± 0.45
AACAUUCAUUGUUGUCGGUGGGU | 2.236 ± 0.017
AACCAGCACCCCAACUUUGGAC | 2.3 ± 0.14
AACCAUCGACCGUUGAGUGGAC | 0.92 ± 0.14
AACCCGUAGAUCCGAACUUGUG | 1.11 ± 0.13
AACCCGUAGAUCCGAUCUUGUG | 0.985 ± 0.36
AACGCACUUCCCUUUAGAGUGU | 1.23 ± 0.16
AACGCCAUUAUCACACUAAAUA | 1.14 ± 0.04
AACUGGAUCAAUUAUAGGAGUG | 1.79 ± 0.16
AACUGGCCCUCAAAGUCCCGCU | 2.215 ± 0.013
AACUGGCCUACAAAGUCCCAGU | 2.21 ± 0.14
AACUGUUUGCAGAGGAAACUGA | 1.816 ± 0.014
AAGACGGGAGGAAAGAAGGGAG | 1.22 ± 0.24
AAGAUGUGGAAAAAUUGGAAUC | 1.68 ± 0.17
AAGCAGCUGCCUCUGAGGC | 2.16 ± 0.21
AAGCAUUCUUUCAUUGGUUGG | 1.4 ± 0.014
AAGCCCUUACCCCAAAAAGCAU | 1.6 ± 0.26
AAGCCCUUACCCCAAAAAGUAU | 1.73 ± 0.12
AAGCCUGCCCGGCUCCUCGGG | 1.81 ± 0.26
AAGCUGCCAGUUGAAGAACUGU | 1.23 ± 0.26
AAGGAGCUCACAGUCUAUUGAG | 1.97 ± 0.2

Sequence | HRG-induced Akt activation (log2)
AAGGAGCUUACAAUCUAGCUGGG | 1.87 ± 0.21
AAGGCAGGGCCCCCGCUCCCC | 1.14 ± 0.77
AAGUAGUUGGUUUGUAUGAGAUGGUU | 1.424 ± 0.014
AAGUGAUCUAAAGGCCUACAU | 1.67 ± 0.14
AAGUGCCGCCAUCUUUUGAGUGU | 0.888 ± 0.34
AAGUGCCUCCUUUUAGAGUGUU | 0.982 ± 0.27
AAGUGCUGUCAUAGCUGAGGUC | 0.879 ± 0.58
AAGUGCUUCCUUUUAGAGGGUU | 0.817 ± 0.012
AAGUGUGCAGGGCACUGGU | 2.33 ± 0.23
AAGUUCUGUUAUACACUCAGGC | 1.154 ± 0.01
AAUAAUACAUGGUUGAUCUUU | 1.38 ± 0.066
AAUAUAACACAGAUGGCCUGU | 1.36 ± 0.25
AAUAUUAUACAGUCAACCUCU | 1.21 ± 0.51
AAUCACUAACCACACGGCCAGG | 1.79 ± 0.65
AAUCAUACACGGUUGACCUAUU | 1.41 ± 0.42
AAUCAUACAGGGACAUCCAGUU | 1.86 ± 0.16
AAUCAUGUGCAGUGCCAAUAUG | 1.51 ± 0.15
AAUCCUUGGAACCUAGGUGUGAGU | 2.15 ± 0.11
AAUCCUUUGUCCCUGGGUGAGA | 1.76 ± 0.094
AAUCGUACAGGGUCAUCCACUU | 1.46 ± 0.051
AAUGACACGAUCACUCCCGUUGA | 1.48 ± 0.35
AAUGCACCCGGGCAAGGAUUCU | 1.91 ± 0.056
AAUGCACCUGGGCAAGGAUUCA | 1.43 ± 0.42
AAUGGAUUUUUGGAGCAGG | 2.12 ± 0.2

Sequence | HRG-induced Akt activation (log2)
AAUGGCGCCACUAGGGUUGUG | 1.42 ± 0.35
AAUUGCACGGUAUCCAUCUGUA | 1.15 ± 0.15
AAUUGCACUUUAGCAAUGGUGA | 1.14 ± 0.04
ACAAAGUGCUUCCCUUUAGAGU | 1.75 ± 0.12
ACAAAGUGCUUCCCUUUAGAGUGU | 1.41 ± 0.53
ACACAGGGCUGUUGUGAAGACU | 1.74 ± 0.1
ACAGAUUCGAUUCUAGGGGAAU | 1.75 ± 0.2
ACAGCAGGCACAGACAGGCAGU | 1.75 ± 0.28
ACAGGUGAGGUUCUUGGGAGCC | 1.32 ± 0.087
ACAGUAGAGGGAGGAAUCGCAG | 1.42 ± 0.22
ACAGUAGUCUGCACAUUGGUUA | 1.692 ± 0.0034
ACAGUCUGCUGAGGUUGGAGC | 1.54 ± 0.044
ACCACUGACCGUUGACUGUACC | 1.81 ± 0.74
ACCAGGAGGCUGAGGCCCCU | 1.68 ± 0.1
ACCAUCGACCGUUGAUUGUACC | 1.35 ± 0.22
ACCCGUCCCGUUCGUCCCCGGA | 1.513 ± 0.0044
ACCCUAUCAAUAUUGUCUCUGC | 1.33 ± 0.23
ACCGUGCAAAGGUAGCAUA | 1.89 ± 0.11
ACCGUGGCUUUCGAUUGUUACU | 1.58 ± 0.11
ACCUGGCAUACAAUGUAGAUUU | 1.81 ± 0.29
ACCUUCUUGUAUAAGCACUGUGCUAAA | 1.54 ± 0.13
